Structures can show the parent of a compound that is named as a salt.
Key:
[1] = test system: mouse vascular injury model; experiment: Neointimal formation suppressive effect in mouse vascular injury model; assay type: in vivo; conditions: high dose systemic administration: single intraperitoneal, 28 days after wire injury
Protocol: Using the pioglitazone-containing nanoparticles obtained in Example 1, the neointimal formation suppressive effect in mouse vascular injury model was tested. […] The both ends of the blood vessel were ligated with a 6-0 silk thread to temporarily shut off the blood flow. The branch was incised, and a wire (diameter […], No. C—SF-15-15, COOK) was inserted by 5 mm in the iliac artery side to injure the blood vessel. After wire injury, the experimental animals were divided into a solvent control group and pioglitazone-containing nanoparticle group. The wire was removed, 100 μl, each of a solvent and a pioglitazone-containing PLGA nanoparticle solution was intraarterially administered from the branch over 5 min. The solvent control group was administered with the solvent (phosphate buffered saline) alone only once. The pioglitazone-containing nanoparticle group was administered with the pioglitazone-containing PLGA nanoparticles obtained in Example 1 (containing 0.5 mg/mouse as nanoparticles, corresponding to pioglitazone concentration of 0.015 mg/mouse (0.5 mg/kg body weight)) once. After administration, the branch part was ligated, the blood flow was resumed and the skin was sutured. Immediately after the wire injury, a high dose (10-fold amount of clinical dose) pioglitazone hydrochloride (0.15 mg/mouse (5 mg/kg body weight) as pioglitazone) single time intraperitoneal administration group was formed. At 28 days after vascular injury, the right femoral artery was washed and fixed with phosphate buffered saline and neutral buffered formalin via the heart, and isolated. A paraffin section was prepared and stained with Elastica van Gieson, proliferating cell nuclear antigen (PCNA) was immunohistochemically stained, and evaluated for the intima/media ratio, neointimal area, medial area and cell proliferation. For immunohistochemical staining, the proliferated cells were counted and the ratio of thereof to the total cell number was calculated.

[2] = test system: Rat aortic smooth muscle cells; experiment: Delivery and retention of nanoparticles in cultured rat smooth muscle cells; assay type: cell-based; conditions: medium containing FITC alone
Protocol: Using the FITC-containing nanoparticles prepared in Experimental Example 3 (1), deliver and retention tests in cultured rat […] smooth muscle cell were performed.
Rat aortic smooth muscle cells (obtained from TOYOBO) were plated on a slide glass chamber to a subconfluent cell density in DMEM medium (Sigma) containing 10% fetal bovine serum (day 0). On day 2, the medium was changed to a medium containing FITC or FITC-containing nanoparticles (0.5 mg/mL in nanoparticles concentration).
At 5 min and 24 hr after medium exchange, the cells were fixed with methanol, the nucleus was stained with Propidium iodide (Vector laboratories, Inc.), and subjected to fluorescence microscope observation. The total number of nuclei and fluorescence positive cells were counted for each field of view, and the ratio of fluorescence positive cells was calculated.

Compound	Intima/media ratio ([1]; 0.15 mg/mouse (5 mg/kg) as pioglitazone)	Medial area (μm^2) ([1]; 5 mg/kg as pioglitazone)	Neointimal area (μm^2) ([1]; 5 mg/kg as pioglitazone)	Ratio of fluorescence positive cells [2] [%]
CCc1ccc(CCOc2ccc(CC3SC(=O)NC3=O)cc2)nc1 (stereo not shown) [Pioglitazone, pioglitazone hydrochloride]	2.3 ± 1.2	14904 ± 2107	23656 ± 8982	–
fluorescein isothiocyanate [FITC]	–	–	–	0

Reference: patent US8337896B2, “Drug-containing nanoparticles” (Kyushu University, National University Corporation, priority 2007, dated 2012)
